Measured values published in EPA's CvTdb concentration-time database.

Assays:
Assay in all cases: concentration in plasma after dosing
Rat [1] = conditions: dosed: Emodin, 80 mg/kg, oral, Female, F344/N
Rat [2] = conditions: dosed: Emodin, 5 mg/kg, iv, Female, F344/N
Rat [3] = conditions: 10 min; dosed: Emodin; 5 mg/kg; iv; Female; F344/N
Rat [4] = conditions: 20 min; dosed: Emodin; 5 mg/kg; iv; Female; F344/N
Rat [5] = conditions: 6 h; dosed: Emodin; 80 mg/kg; oral; Female; F344/N
Rat [6] = conditions: 20 min; dosed: Emodin; 5 mg/kg; iv; Male; F344/N
Rat [7] = conditions: 5 min; dosed: Emodin; 5 mg/kg; iv; Male; F344/N
Rat [8] = conditions: 20 min; dosed: Emodin; 5 mg/kg; iv; Female; F344/N; remark: listed apart in the source
Rat [9] = conditions: dosed: Emodin, 80 mg/kg, oral, Female, F344/N; remark: listed apart in the source
Rat [10] = conditions: dosed: Emodin, F344/N
Rat [11] = conditions: dosed: Emodin, 5 mg/kg, iv, Male, F344/N
Rat [12] = conditions: 6 h; dosed: Emodin; 80 mg/kg; oral; Male; F344/N
Rat [13] = conditions: 10 min; dosed: Emodin; 5 mg/kg; iv; Male; F344/N
Rat [14] = conditions: 20 min; dosed: Emodin; 5 mg/kg; iv; Male; F344/N; remark: listed apart in the source
Rat [15] = conditions: 40 min; dosed: Emodin; 5 mg/kg; iv; Female; F344/N
Rat [16] = conditions: 9 h; dosed: Emodin; 80 mg/kg; oral; Female; F344/N
Rat [17] = conditions: 40 min; dosed: Emodin; 5 mg/kg; iv; Female; F344/N; remark: listed apart in the source
Rat [18] = conditions: 12 h; dosed: Emodin; 80 mg/kg; oral; Male; F344/N
Rat [19] = conditions: 10 min; dosed: Emodin; 5 mg/kg; iv; Male; F344/N; remark: listed apart in the source
Rat [20] = conditions: dosed: Emodin, 5 mg/kg, iv, Female, F344/N; remark: listed apart in the source
Rat [21] = conditions: 6 h; dosed: Emodin; 80 mg/kg; oral; Female; F344/N; remark: listed apart in the source
Rat [22] = conditions: dosed: Emodin, 5 mg/kg, iv, Female, F344/N; remark: listed apart in the source
Rat [23] = conditions: 5 min; dosed: Emodin; 5 mg/kg; iv; Male; F344/N; remark: listed apart in the source
Rat [24] = conditions: dosed: Emodin, 5 mg/kg, iv, Male, F344/N; remark: listed apart in the source
Rat [25] = conditions: 40 min; dosed: Emodin; 5 mg/kg; iv; Male; F344/N
Rat [26] = conditions: 9 h; dosed: Emodin; 80 mg/kg; oral; Female; F344/N; remark: listed apart in the source
Rat [27] = conditions: 10 min; dosed: Emodin; 5 mg/kg; iv; Female; F344/N; remark: listed apart in the source
Rat [28] = conditions: 40 min; dosed: Emodin; 5 mg/kg; iv; Male; F344/N; remark: listed apart in the source
Rat [29] = conditions: 9 h; dosed: Emodin; 80 mg/kg; oral; Male; F344/N
Rat [30] = conditions: 9 h; dosed: Emodin; 80 mg/kg; oral; Male; F344/N; remark: listed apart in the source
Rat [31] = conditions: dosed: Emodin, 5 mg/kg, iv, Female, F344/N; remark: listed apart in the source

Cc1cc(O)c2c(c1)C(=O)c1cc(O)cc(O)c1C2=O [Emodin]
Conditions | concentration in plasma [ng/mL]
Rat [1], 3 h | 255
Rat [1], 12 h | 184
Rat [2], 1.5 h | 151
Rat [2], 5 min | 5160
Rat [9], 3 h | 136
Rat [9], 12 h | 175
Rat [11], 1 h | 229
Rat [11], 2 min | 10500
Rat [20], 1.5 h | 128
Rat [20], 5 min | 4780
Rat [22], 1 h | 163
Rat [22], 2 min | 5990
Rat [24], 1 h | 219
Rat [24], 2 min | 8580
Rat [31], 1 h | 158
Rat [31], 2 min | 6490

Conditions | concentration in plasma [ng/mL]
Rat [3] | 2260
Rat [4] | 794
Rat [5] | 165
Rat [6] | 4360
Rat [7] | 8480
Rat [8] | 1190
Rat [12] | 108
Rat [13] | 6180
Rat [14] | 5930
Rat [15] | 928
Rat [16] | 198
Rat [17] | 963
Rat [18] | 110
Rat [19] | 7370
Rat [21] | 151
Rat [23] | 8390
Rat [25] | 1700
Rat [26] | 232
Rat [27] | 3010
Rat [28] | 2200
Rat [29] | 155
Rat [30] | 153

concentration in plasma [ng/mL], Rat [10]
Conditions | Female | Male
1 h, 5 mg/kg, iv | 256 | 205
1.5 h, 5 mg/kg, iv | 119 | –
1.5 h, 80 mg/kg, oral | 136 | –
2 min, 5 mg/kg, iv | 4970 | 8380
3 h, 80 mg/kg, oral | 115 | –
5 min, 5 mg/kg, iv | 3040 | 7820
6 h, 40 mg/kg, oral | 114 | –
6 h, 80 mg/kg, oral | 143 | 159
8 h, 40 mg/kg, oral | 111 | –
9 h, 80 mg/kg, oral | 269 | 126
10 min, 5 mg/kg, iv | 1650 | 4660
12 h, 80 mg/kg, oral | 167 | 116
20 min, 5 mg/kg, iv | 2400 | 4970
40 min, 5 mg/kg, iv | 740 | 1980
